Biological target: T1, HUWE1^HECT (Homo sapiens, UniProt Q7Z6Z7)
T1 construct: the isolated HECT domain of HUWE1 (HUWE1^HECT); made in house
T1 sequence (Q7Z6Z7 3993-4374): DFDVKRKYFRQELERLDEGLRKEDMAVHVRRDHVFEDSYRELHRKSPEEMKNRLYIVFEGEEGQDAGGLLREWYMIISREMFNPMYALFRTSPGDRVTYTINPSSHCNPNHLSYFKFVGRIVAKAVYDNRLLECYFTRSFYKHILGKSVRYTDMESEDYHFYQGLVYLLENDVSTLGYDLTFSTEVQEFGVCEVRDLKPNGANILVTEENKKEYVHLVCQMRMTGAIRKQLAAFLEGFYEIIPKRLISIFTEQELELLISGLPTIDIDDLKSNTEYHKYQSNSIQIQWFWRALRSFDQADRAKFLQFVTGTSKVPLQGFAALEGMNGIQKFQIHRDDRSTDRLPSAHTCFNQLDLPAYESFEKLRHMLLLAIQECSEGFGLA
Assay: Analytical SEC / intact protein MS of HUWE1^HECT-driven compound ubiquitination
Format: biochemical
Conditions: for Compound ubiquitination by HUWE1^HECT (SEC, intact protein MS): + ATP, WT Ub; for Inhibitor ubiquitination activity of HUWE1^HECT compared with other HECT domains: SEC, monoubiquitinated compound, HUWE1^HECT signal normalized to 1
Procedure: HUWE1^HECT multi-turnover ubiquitination reactions were performed with 500 nM UBA1, 5 μM UBE2L3, 5 μM HUWE1^HECT and 100 μM Ub in 20 mM HEPES (pH 7.5), 100 mM NaCl and 0.5 mM TCEP in the presence of 1 mM ATP and 3 mM MgCl2. After 15 min incubation at 30 °C, the mixture was injected into a Superdex 75 Increase 3.2/300 column (Cytiva), equilibrated in 25 mM HEPES (pH 7.5), 100 mM NaCl, and 0.5 mM TCEP at 4 °C. Chromatograms were analyzed and peaks integrated with Unicorn v.7.9.02440 (Cytiva). Data were plotted with Prism v.9.3.1 (GraphPad).
Intact protein LC/MS: protein molecular weights (MWs) were determined by LC/MS on a nanoflow chromatography system (Dionex U3000 nanoRSLC), hyphenated to a hybrid quadrupole/orbitrap mass spectrometer (Q Exactive HF) with a NanoFlex ion source and controlled by Xcalibur v.2.4 (all Thermo Fisher Scientific). Proteins were dissolved in 2% (v/v) acetonitrile (ACN), 0.1% (v/v) formic acid (FA) to a concentration of 100 fmol μL^−1. For each analysis, 500 fmol were enriched on a pre-column (0.15 ×20 mm, Reprosil-Pur120 C18-AQ 5 μm; Dr. Maisch GmbH) and separated on an analytical RP-C18 column (0.075 mm×200 mm, Reprosil-Pur 120 C18-AQ; 1.9 μm, Dr. Maisch GmbH), using a 23-min linear gradient of 10–80% (v/v) ACN/0.1% (v/v) FA at 300 nl min^−1. MS data were acquired in full MS mode across the 500–1800 m/z-range at a resolution setting of 120,000 FWHM, an AGC target of 1*10e6 and a maximum fill time of 200 ms. Charge state deconvolution and MW representation were performed in Freestyle v.1.9 (Thermo Fisher Scientific), using default settings for high-resolution data.

| Structure (SMILES) | Compound ubiquitination by HUWE1^HECT (SEC, intact protein MS) (20 μM compound) | Inhibitor ubiquitination activity of HUWE1^HECT compared with other HECT domains | Compound ubiquitination by HUWE1^HECT (SEC) (20 μM compound, UbΔGG (residues 1–74) instead of WT Ub) |
| --- | --- | --- | --- |
| Cc1c(C(=O)Nc2ccc(CN)cc2)ncnc1N1CCC(C#N)(c2ccccc2)CC1 [BI8622] | assigned to the respective monoubiquitinated compound by intact protein MS | substantially higher activity for HUWE1^HECT than for the other HECT domains |  |
| NCc1cccc(CNc2ncnc3c(N4CCN(Cc5ccccc5)CC4)ncnc23)c1 [BI8626] | assigned to the respective monoubiquitinated compound by intact protein MS | substantially higher activity for HUWE1^HECT than for the other HECT domains | No compound ubiquitination occurred |

From article PMC12405493, “Selective ubiquitination of drug-like small molecules by the ubiquitin ligase HUWE1” (Nature Communications, 2025)
